Data set [1] can be described thus: Light fastness: change in chromaticity ΔEab* of the coated glass substrate after xenon lamp irradiation. In kind it is physicochemical. To be noted: xenon lamp 50,000 Lux for 10 hours. As to the method: The glass substrate coated with the dye resist solution was irradiated with 50,000 Lux light from a xenon lamp for 10 hours (corresponding to 500,000 Lux·h) and then, a change in chromaticity, namely ΔEab* value, before and after the irradiation was measured. The obtained ΔEab* value was adopted as an index showing the degree of […] and evaluated based on the following criteria. The smaller the ΔEab* value is, the higher the […] is.
• A: ΔEab* was 3 or less. • B: ΔEab* exceeded 3 and was less than 10. • C: ΔEab* was 10 or more. —Pattern Shape—
A cyan pattern image was obtained by carrying out coating, prebaking, irradiation, developing, rinsing and drying in the same manner as in Example 1 and then heated at 180° C. for 5 minutes. Also, the heat resistance, light fastness and pattern shape were evaluated in the same manner as in Example 1 and also the solubility of the dye (exemplified compound (3)) was evaluated visually according to the same criteria as in Example 1 from the degree of solubility when the dye was dissolved in the above “1) Preparation of a dye resist solution (positive type dye-containing curable composition)”.

A short description of data set [2]: Heat resistance: change in chromaticity ΔEab* of the coated glass substrate after hot plate heating. The class given is physicochemical. The following applies: 200° C. for one hour. As to the method:
The glass substrate coated with the dye resist solution was placed on a hot plate such that its surface was in contact with the hot plate and heated at 200° C. for one hour to measure a change in chromaticity, namely ΔEab* value, before and after the substrate was placed, by using a chromaticity meter (trade name: MCPD-1000, manufactured by Otsuka Electronics Co., Ltd.). The obtained ΔEab* value was adopted as an index showing the degree of […] and evaluated based on the following criteria. The smaller the ΔEab* value is, the higher the heat resistance is.
• A: ΔEab* was 5 or less. • B: ΔEab* exceeded 5 and was less than 10. • C: ΔEab* was 10 or more. —Light Fastness—

Where [3] appears, read: negative type dye resist film on glass.
Where [4] appears, read: positive type dye resist film on glass.

As to “Tetra-β-(3,5-dimethylpyrazolyl)zinc phthalocyanine [Exemplified compound (4)]”, the Light fastness result in data set [1] (setting [3]) and in data set [1] (setting [4]) was “A (ΔEab* was 3 or less.)” each time. Further, the Heat resistance result in data set [2] (setting [3]) and in data set [2] (setting [4]) was “A (ΔEab* was 5 or less.)” in each case.
As to `Cc1cc(C)n(-c2ccc3c(c2)-c2nc-3nc3[n-]c(nc4nc(nc5[n-]c(n2)c2ccc(-n6nc(C)cc6C)cc52)-c2cc(-n5nc(C)cc5C)ccc2-4)c2ccc(-n4nc(C)cc4C)cc32)n1.[Ni+2]` [Exemplified compound (16)], the Light fastness entry in data set [1] (setting [4]) is reported as “A (ΔEab* was 3 or less.)”. The Heat resistance result in data set [2] (setting [4]) was “A (ΔEab* was 5 or less.)”.
Turning to “Tetra-α-(3,5-dimethylpyrazolyl)zinc phthalocyanine [Exemplified compound (3)]”, the Light fastness entry in data set [1] (setting [3]) and in data set [1] (setting [4]) was “A (ΔEab* was 3 or less.)” in each case. Besides, the Heat resistance result in data set [2] (setting [3]) and in data set [2] (setting [4]) was “A (ΔEab* was 5 or less.)” throughout.

The values above are taken from patent publication US20050208394A1, “Dye-containing curable composition, color filter and method of producing the color filter” (FUJI PHOTO FILM CO., LTD., priority 2004, published 2005).
